Values after ≈ are worked out from the molar mass of the structure shown.
Test system: A204
Assay: Cytotoxicity against human A204 cells after 24 hrs by soft agar colony forming assay
Format: functional, cell-based
Details: A204, 24 h

C/C=C1/C[C@@H](C)[C@](O)(CO)C(=O)OC/C2=C/CN(C)CC[C@@H](OC1=O)C2=O [HYDROXYSENKIRKINE]
IC50: 360 µg/mL (≈ 944 µM)

C[C@H]1C(=O)O[C@@H]2CCN3CC=C(COC(=O)[C@](C)(O)[C@]1(C)O)[C@H]23 [MONOCROTALINE]
IC50: 316 µg/mL (≈ 971 µM)

C/C=C1/C[C@@H](C)[C@@](C)(O)C(=O)OCC2=CCN3CC[C@@H](OC1=O)[C@@H]23 [SENECIONINE]
IC50: 150 µg/mL (≈ 447 µM)

C[C@@H]1C/C(=C\CO)C(=O)O[C@@H]2CCN(C)C/C=C(/COC(=O)[C@]1(C)O)C2=O [ANONAMINE]
IC50: 153 µg/mL (≈ 401 µM)

C/C=C1\C[C@@H](C)[C@@](C)(O)C(=O)OCC2=CCN3CC[C@@H](OC1=O)[C@@H]23 [INTEGERRIMINE]
IC50: 120 µg/mL (≈ 358 µM)

C[C@@H]1C[C@@]2(O[C@H]2C)C(=O)O[C@@H]2CCN(C)C/C=C(/COC(=O)[C@]1(C)O)C2=O [OTOSENINE]
IC50: 130 µg/mL (≈ 341 µM)

C/C=C1\C[C@@H](C)[C@@](C)(O)C(=O)OC/C2=C/CN(C)CC[C@@H](OC1=O)C2=O [SENKIRKINE]
IC50: 260 µg/mL (≈ 711 µM)

C/C=C1/C[C@@H](C)[C@@](C)(O)C(=O)OCC2=CC[N+]3([O-])CC[C@@H](OC1=O)[C@@H]23 (stereo not given in full) [SENECIONINE N-OXIDE]
IC50: 150 µg/mL (≈ 427 µM)

C/C=C1/C[C@@H](C)[C@@](C)(O)C(=O)OC/C2=C/CN(C)CC[C@@H](OC1=O)C2=O [NEOSENKIRKINE]
IC50: 221 µg/mL (≈ 605 µM)

C/C=C1\C[C@@H](C)[C@](O)(CO)C(=O)OCC2=CCN3CC[C@@H](OC1=O)[C@@H]23 [RETRORSINE]
IC50: 120 µg/mL (≈ 341 µM)

From ChEMBL document CHEMBL1151102, “Macrocyclic pyrrolizidine alkaloids from Senecio anonymus. Separation of a complex alkaloid extract using droplet counter-current chromatography” (J Nat Prod, 1988)
